# Values of other authors in patent US12692503B2, “Generation of acyl amino acids” (Modular Genetics, Inc., priority 2007, dated 2026).
# *1 amine or outer side, *2 acyl side, *3 side chain or, on linkers, in order; H or OH if unused. Where a SMILES comes first, the peptide text is derived from it. Bridges are numbered along the chain shown (N, C = ends). [ ]: non-standard residue; d: D form. X1 = CC(C)CCCCCCCCC[C@H](CC(=O)[*:1])O[*:2]
# Details: organic solvents and water
compound,measurement,value
CC(C)CCCCCCCCC[C@@H]1CC(=O)N[C@@H](CCC(=O)O)C(=O)N[C@@H](CC(C)C)C(=O)N[C@H](CC(C)C)C(=O)N[C@@H](C(C)C)C(=O)N[C@@H](CC(=O)O)C(=O)N[C@H](CC(C)C)C(=O)N[C@@H](CC(C)C)C(=O)O1 [surfactin] (EL[dL]VD[dL]L; linker N-C via X1),solubility,soluble in both organic solvents and water
